{"source": "paper PMC7083880", "about": "(Nature Communications, 2020)", "key": {"[1]": {"tested_on": "firefly luciferase (Fluc) gene with UAG nonsense codon at position 109 in HeLa cells", "assay": "Firefly luciferase readthrough assay, UAG PTC construct", "format": "cell-based, human", "conditions": "G418 1mg/ml"}, "[2]": {"target": "T1, FTSJ1 (Homo sapiens, UniProt Q9UET6)", "T1 construct": "host or cells: HeLa", "T1 sequence (Q9UET6 1-329)": "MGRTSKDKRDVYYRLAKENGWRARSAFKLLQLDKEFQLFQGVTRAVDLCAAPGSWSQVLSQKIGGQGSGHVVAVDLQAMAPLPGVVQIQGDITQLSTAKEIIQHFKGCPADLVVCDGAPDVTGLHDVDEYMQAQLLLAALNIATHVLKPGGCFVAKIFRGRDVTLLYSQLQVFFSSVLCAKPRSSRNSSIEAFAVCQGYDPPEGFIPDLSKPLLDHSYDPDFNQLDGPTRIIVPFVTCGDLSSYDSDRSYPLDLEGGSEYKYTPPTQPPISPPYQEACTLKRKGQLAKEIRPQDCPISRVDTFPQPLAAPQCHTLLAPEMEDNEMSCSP", "assay": "UGA readthrough luciferase assay with FTSJ1 overexpression", "format": "cell-based", "description": "Firefly luciferase from HEK293FT cells transfected with the Fluc-int-UGA construct was immunoprecipitated and digested with trypsin. The MS/MS spectrum of the peptide containing the PTC position and the sequence determination are shown. The upper red and blue sequences indicate the amino acids validated, respectively, by detection of Nter and Cter peptide fragments (b and y ion series). Peptide fragments y6 and y7 clearly identify tryptophan (W) at the PTC position. The black peaks correspond to non-attributed mass-to-charge ratio (m/z) values. […] Readthrough efficiency was determined by measuring luciferase activity in HeLa cells co-transfected with the firefly luciferase construct described in Fig. 1b and with increasing amounts of an expression vector for either FTSJ1 or CTU1 (0.5, 1, or 2 µg). The empty expression vector (E.v.) was used as control. […] The experiment was performed twice and the results of both experiments (Exp1 and Exp2) are shown. c Western blot analysis of FTSJ1 and CTU1. d 2′-O-methylation analysis of tRNA^Trp, tRNA^SER, and tRNA^GLN by RiboMethSeq. […] A molecular weight marker is indicated to the left of each gel. p-values (p) were calculated using Student’s t-test. Source data are provided as a Source Data file.\nAmong the enzymes modifying tRNAs liable to recognize a stop codon by extended wobbling, human FTSJ1 (TRM7 in yeast) exclusively modifies tRNAs involved in UGA readthrough. In addition to other tRNA targets, FTSJ1 methylates the cytosine at position 34 of tRNA^Trp. Inhibition of this modification could increase the capacity of tRNA^Trp to misdecode and recognize the UGA stop codon. […] FTSJ1 and CTU1 overexpression were assessed by western-blot analysis (Fig. 5c)."}, "[3]": {"tested_on": "firefly luciferase (Fluc) gene with UAA nonsense codon at position 109 in HeLa cells", "assay": "Firefly luciferase readthrough assay, UAA PTC construct", "format": "cell-based, human", "conditions": "for Luciferase activity, UAA PTC: G418 1mg/ml"}}, "note": "“And” between values parts separate entries of the source, which are not always exact repeats. Identical values can stand only once."}
{"smiles": "CN[C@@H]1[C@@H](O)[C@@H](O[C@@H]2[C@@H](O)[C@H](O[C@H]3O[C@H]([C@@H](C)O)[C@@H](O)[C@H](O)[C@H]3N)[C@@H](N)C[C@H]2N)OC[C@]1(C)O", "note": "[G418, reference compound]", "values": [{"measurement": "Luciferase activity, UAG PTC", "setting": "[1]; average of 2 experiments", "result": "2275.5±805 and 2275.5"}, {"measurement": "Luciferase activity, UAG PTC", "setting": "[1]; experiment 1", "result": 2845}, {"measurement": "Luciferase activity, UAG PTC", "setting": "[1]; experiment 2", "result": 1706}, {"measurement": "luciferase activity, average", "setting": "[2]; 0.5µg FTSJ1, 25µM", "result": 2984.12}, {"measurement": "luciferase activity, exp1", "setting": "[2]; 0.5µg FTSJ1, 25µM", "result": 2303.5}, {"measurement": "luciferase activity, exp1*1,5", "setting": "[2]; 0.5µg FTSJ1, 25µM", "result": 3455.25}, {"measurement": "luciferase activity, exp2", "setting": "[2]; 0.5µg FTSJ1, 25µM", "result": 2513}, {"measurement": "luciferase activity, average", "setting": "[2]; 0.5µg FTSJ1, 600µM", "result": 3518}, {"measurement": "luciferase activity, exp1", "setting": "[2]; 0.5µg FTSJ1, 600µM", "result": 2352}, {"measurement": "luciferase activity, exp1*1,5", "setting": "[2]; 0.5µg FTSJ1, 600µM", "result": 3528}, {"measurement": "luciferase activity, exp2", "setting": "[2]; 0.5µg FTSJ1, 600µM", "result": 3508}, {"measurement": "luciferase activity, average", "setting": "[2]; 1µg FTSJ1, 25µM", "result": 2661.5}, {"measurement": "luciferase activity, exp1", "setting": "[2]; 1µg FTSJ1, 25µM", "result": 1562}, {"measurement": "luciferase activity, exp1*1,5", "setting": "[2]; 1µg FTSJ1, 25µM", "result": 2343}, {"measurement": "luciferase activity, exp2", "setting": "[2]; 1µg FTSJ1, 25µM", "result": 2980}, {"measurement": "luciferase activity, average", "setting": "[2]; 1µg FTSJ1, 600µM", "result": 3066.25}, {"measurement": "luciferase activity, exp1", "setting": "[2]; 1µg FTSJ1, 600µM", "result": 1933}, {"measurement": "luciferase activity, exp1*1,5", "setting": "[2]; 1µg FTSJ1, 600µM", "result": 2899.5}, {"measurement": "luciferase activity, exp2", "setting": "[2]; 1µg FTSJ1, 600µM", "result": 3233}, {"measurement": "luciferase activity, average", "setting": "[2]; 2µg FTSJ1, 25µM", "result": 2020.12}, {"measurement": "luciferase activity, exp1", "setting": "[2]; 2µg FTSJ1, 25µM", "result": 1256.5}, {"measurement": "luciferase activity, exp1*1,5", "setting": "[2]; 2µg FTSJ1, 25µM", "result": 1884.75}, {"measurement": "luciferase activity, exp2", "setting": "[2]; 2µg FTSJ1, 25µM", "result": 2155.5}, {"measurement": "luciferase activity, average", "setting": "[2]; 2µg FTSJ1, 600µM", "result": 2062.5}, {"measurement": "luciferase activity, exp1", "setting": "[2]; 2µg FTSJ1, 600µM", "result": 1540}, {"measurement": "luciferase activity, exp1*1,5", "setting": "[2]; 2µg FTSJ1, 600µM", "result": 2310}, {"measurement": "luciferase activity, exp2", "setting": "[2]; 2µg FTSJ1, 600µM", "result": 1815}, {"measurement": "Correction of the UAA nonsense mutation (luciferase activity), in words", "setting": "[3]; Fig. 1c", "result": "only weakly corrected the UAA nonsense mutation"}, {"measurement": "Luciferase activity, UAA PTC", "setting": "[3]; average of 2 experiments", "result": "495±34 and 495"}, {"measurement": "Luciferase activity, UAA PTC", "setting": "[3]; experiment 1", "result": 471}, {"measurement": "Luciferase activity, UAA PTC", "setting": "[3]; experiment 2", "result": 519}]}
